{
  "source": "patent US6780861B2",
  "about": "“Azabicyclic carbamates and their use as α-7 nicotinic acetylcholine receptor agonists” (Novartis AG, priority 2000, dated 2004)",
  "note": "Where a name gives a salt, the structure may show the parent alone.",
  "data": [
    {"smiles": "O=C(NC1CN2CCC1CC2)OCc1ccc2c(c1)OCO2", "note": "(centres unmarked) (as salt: hydrochloride)", "values": [
      {"measurement": "melting point", "value": "186 to 187", "unit": "°C"}
    ]},
    {"smiles": "COc1cc(COC(=O)NC2CN3CCC2CC3)cc(OC)c1OC", "note": "(centres unmarked) (as salt: hydrochloride)", "values": [
      {"measurement": "melting point", "value": "211 to 212", "unit": "°C"}
    ]}
  ]
}
